The source made the active and inactive calls. No cut-off for these calls is given here.
Experiments:
[1] = tested on: Staphylococcus aureus; assay: Antibacterial activity against Methicillin-resistant Staphylococcus aureus infected in ICR mouse skin infection model assessed as reduction in inflammatory infiltration at 40 mg/kg, sc by H and E staining based microscopic analysis; assay type: functional, organism-based
[2] = tested on: Staphylococcus aureus; assay: Antibacterial activity against methicillin-resistant Staphylococcus aureus assessed as fold reduction in viable bacteria at 1 to 8 times MIC measured at 3 hr by time-kill assay; assay type: functional
[3] = Selectivity index, ratio of IC50 for antiproliferative activity against HEK293T cells assessed as reduction in cell viability to MIC for antibacterial activity against methicillin-resistant Staphylococcus aureus assessed as bacterial growth inhibition; assay type: toxicity, cell-based; conditions: human, read-out: Selectivity Index
[4] = tested on: Staphylococcus aureus; assay: Antibacterial activity against Methicillin-resistant Staphylococcus aureus infected in ICR mouse skin infection model assessed as log reduction in bacterial count at 40 mg/kg, sc measured upto 10 days; assay type: functional; conditions: time <= 10 day
[5] = tested on: Porphyromonas gingivalis; assay: Antibacterial activity against Porphyromonas gingivalis assessed as bacterial growth inhibition incubated for 24 hrs by CLSI based micro-broth dilution assay; assay type: functional
[6] = tested on: Staphylococcus aureus; assay: Antibacterial activity against methicillin-resistant Staphylococcus aureus 18908 assessed as bacterial growth inhibition incubated for 24 hrs by CLSI based micro-broth dilution assay; assay type: functional
[7] = tested on: Pseudomonas aeruginosa; assay: Antibacterial activity against Pseudomonas aeruginosa assessed as bacterial growth inhibition incubated for 24 hrs by CLSI based micro-broth dilution assay; assay type: functional
[8] = tested on: Staphylococcus aureus; assay: Antibacterial activity against methicillin-resistant Staphylococcus aureus assessed as reduction in viable bacteria at 1 to 8 times MIC measured at 1 hr by time-kill assay; assay type: functional, organism-based
[9] = Stability in mouse blood plasma measured for 24 hrs by RP-HPLC analysis; assay type: ADME, cell-free
[10] = tested on: Staphylococcus aureus; assay: Antibacterial activity against methicillin-resistant Staphylococcus aureus 18466 assessed as bacterial growth inhibition incubated for 24 hrs by CLSI based micro-broth dilution assay; assay type: functional
[11] = tested on: Staphylococcus aureus; assay: Antibacterial activity against Staphylococcus aureus assessed as reduction in bacterial growth in presence of PABA; assay type: functional, organism-based
[12] = tested on: Staphylococcus aureus; assay: Antibacterial activity against methicillin-resistant Staphylococcus aureus 19423 assessed as bacterial growth inhibition incubated for 24 hrs by CLSI based micro-broth dilution assay; assay type: functional
[13] = tested on: Escherichia coli; assay: Antibacterial activity against Escherichia coli assessed as bacterial growth inhibition incubated for 24 hrs by CLSI based micro-broth dilution assay; assay type: functional
[14] = tested on: Staphylococcus aureus; assay: Antibacterial activity against methicillin-resistant Staphylococcus aureus 18475 assessed as bacterial growth inhibition incubated for 24 hrs by CLSI based micro-broth dilution assay; assay type: functional
[15] = tested on: Staphylococcus aureus; assay: Antibacterial activity against Staphylococcus aureus 25923 assessed as bacterial growth inhibition incubated for 24 hrs by CLSI based micro-broth dilution assay; assay type: functional
[16] = tested on: Staphylococcus aureus; assay: Antibacterial activity against Staphylococcus aureus 29213 assessed as bacterial growth inhibition incubated for 24 hrs by CLSI based micro-broth dilution assay; assay type: functional
[17] = tested on: Cell membrane; assay: Disruption of membrane integrity in methicillin-resistant Staphylococcus aureus measured for 6 hrs by scanning electron microscopic analysis; assay type: cell membranes
[18] = (§1) Hemolytic activity in mouse RBC assessed as hemolysis incubated for 1 hrs by spectrophotometric analysis; assay type: toxicity, cell-based, Erythrocyte; conditions: mouse red blood cells (erythrocytes)
[19] = tested on: Erythrocyte; assay: as §1; assay type: toxicity, cell-based; conditions: erythrocyte, 1 h
[20] = Hemolytic activity in mouse RBC assessed as hemolysis at 320 uM incubated for 1 hrs by spectrophotometric analysis relative to control; assay type: toxicity, cell-based, Erythrocyte; conditions: mouse red blood cells (erythrocytes), read-out: %max
[21] = tested on: Staphylococcus aureus; assay: Antibacterial activity against methicillin-resistant Staphylococcus aureus 18858 assessed as bacterial growth inhibition incubated for 24 hrs by CLSI based micro-broth dilution assay; assay type: functional
[22] = tested on: Staphylococcus aureus; assay: Antibacterial activity against methicillin-resistant Staphylococcus aureus assessed as bacterial growth inhibition incubated for 24 hrs by CLSI based micro-broth dilution assay; assay type: functional
[23] = tested on: Staphylococcus aureus; assay: Antibacterial activity against Methicillin-resistant Staphylococcus aureus infected in ICR mouse skin infection model assessed as reduction in bacterial content at 40 mg/kg, sc measured upto 10 days; assay type: functional, organism-based; conditions: time <= 10.0 day
[24] = tested on: Staphylococcus aureus; assay: Antibacterial activity against Staphylococcus aureus 6538 assessed as bacterial growth inhibition incubated for 24 hrs by CLSI based micro-broth dilution assay; assay type: functional
[25] = target: T1, Monofunctional C1-tetrahydrofolate synthase, mitochondrial (Homo sapiens, UniProt Q6UB35); assay: Binding affinity to FTHFS (unknown origin) expressed in Escherichia coli BL21 (DE3) using IPTG as […] assessed as dissociation constant by MST assay
T1 sequence (Q6UB35 whole entry): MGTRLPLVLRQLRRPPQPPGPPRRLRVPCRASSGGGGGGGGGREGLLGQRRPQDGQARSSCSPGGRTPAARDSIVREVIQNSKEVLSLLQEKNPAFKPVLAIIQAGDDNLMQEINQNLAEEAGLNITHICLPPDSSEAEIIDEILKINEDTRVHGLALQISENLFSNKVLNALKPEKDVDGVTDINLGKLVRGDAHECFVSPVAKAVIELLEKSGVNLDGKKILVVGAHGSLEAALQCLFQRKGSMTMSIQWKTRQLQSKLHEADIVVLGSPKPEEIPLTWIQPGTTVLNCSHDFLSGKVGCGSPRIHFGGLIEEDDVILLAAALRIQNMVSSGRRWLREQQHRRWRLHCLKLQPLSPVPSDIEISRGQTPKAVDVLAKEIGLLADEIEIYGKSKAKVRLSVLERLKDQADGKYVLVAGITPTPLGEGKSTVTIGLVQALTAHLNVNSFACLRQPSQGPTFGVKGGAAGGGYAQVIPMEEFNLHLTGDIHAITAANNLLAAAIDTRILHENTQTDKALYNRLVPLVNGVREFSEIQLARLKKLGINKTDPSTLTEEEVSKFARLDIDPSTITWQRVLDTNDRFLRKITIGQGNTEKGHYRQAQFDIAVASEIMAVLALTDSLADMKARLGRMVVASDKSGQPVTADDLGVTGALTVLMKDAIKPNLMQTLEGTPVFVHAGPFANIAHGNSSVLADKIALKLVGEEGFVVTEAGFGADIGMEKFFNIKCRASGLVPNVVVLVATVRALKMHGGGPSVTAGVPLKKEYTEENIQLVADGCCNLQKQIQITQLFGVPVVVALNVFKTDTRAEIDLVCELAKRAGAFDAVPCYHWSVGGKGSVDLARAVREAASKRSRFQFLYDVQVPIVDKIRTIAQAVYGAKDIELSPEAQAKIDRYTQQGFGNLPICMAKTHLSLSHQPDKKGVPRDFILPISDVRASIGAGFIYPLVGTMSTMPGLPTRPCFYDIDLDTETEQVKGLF

[26] = tested on: Cell membrane; assay: Disruption of membrane integrity in methicillin-resistant Staphylococcus aureus assessed as increase in fluorescence intensity measured for 120 mins by confocal microscopic analysis; assay type: cell membranes
[27] = tested on: Staphylococcus aureus; assay: Antibacterial activity against methicillin-resistant Staphylococcus aureus 19047 assessed as bacterial growth inhibition incubated for 24 hrs by CLSI based micro-broth dilution assay; assay type: functional
[28] = tested on: Staphylococcus aureus; assay: Antibacterial activity against methicillin-resistant Staphylococcus aureus assessed as fold reduction in viable bacteria at 8 times MIC measured at 3 to 6 hrs by time-kill assay; assay type: functional, organism-based; conditions: time 3-6 hrs
[29] = tested on: Staphylococcus aureus; assay: Antibacterial activity against Staphylococcus aureus 8325.4 assessed as bacterial growth inhibition incubated for 24 hrs by CLSI based micro-broth dilution assay; assay type: functional
[30] = Stability in methicillin-resistant Staphylococcus aureus supernatants measured for 24 hrs by RP-HPLC analysis; assay type: physicochemical

| Substance | Activity [1] | fold change (FC) [2] | selectivity ratio [3] | log(activity) [4] | MIC [5] | MIC [6] | MIC [7] | Activity [8] | Stability [9] | MIC [10] | Activity [11] | MIC [12] | MIC [13] | MIC [14] | MIC [15] | MIC [16] | Activity [17] | HC50 at 1 h [18] | HC10 [19] | hemolysis at 1 h, 320 µM [20] | also measured |
| --- | --- | --- | --- | --- | --- | --- | --- | --- | --- | --- | --- | --- | --- | --- | --- | --- | --- | --- | --- | --- | --- |
| H-RRRLARRLIFFIRRAW-NH2 | Active | ~300 | 107 | 5.8 | 12 µM | 3 µM | > 48 µM | Active | Unstable | 6 µM | Active | 6 µM | > 48 µM | 6 µM | 3 µM | 3 µM | Active | > 320 µM | > 320 µM | 8.97% | MIC [21]: 3 µM; MIC [22]: 3 µM; Activity [23]: Active; MIC [24]: 3 µM; Kd [25]: 3680 nM; Activity [26]: Active; MIC [27]: 6 µM; Activity [28]: Active; MIC [29]: 3 µM; Stability [30]: Stable |
| H-LARVARRVIRFIRRAW-NH2 | Active | ~300 | 107 | 5.9 | 12 µM | 3 µM | > 48 µM | Active | Unstable | 6 µM | Active | 6 µM | > 48 µM | 6 µM | 3 µM | 3 µM | Active | > 320 µM | > 320 µM | 8.58% | MIC [21]: 3 µM; MIC [22]: 3 µM; Activity [23]: Active; MIC [24]: 3 µM; Kd [25]: 2240 nM; Activity [26]: Active; MIC [27]: 3 µM; Activity [28]: Active; MIC [29]: 3 µM; Stability [30]: Stable |

Source: ChEMBL document CHEMBL5537162, “Development of Antibacterial Peptides with Membrane Disruption and Folate Pathway Inhibitory Activities against Methicillin-Resistant Staphylococcus aureus” (J Med Chem, 2024)
